Data reported in ChEMBL document CHEMBL4265889, “Design and synthesis of tetrahydropyridopyrimidine based Toll-Like Receptor (TLR) 7/8 dual agonists” (Bioorg Med Chem Lett, 2018).

What was measured:
[1] = target: T1, Toll-like receptor 7 (Homo sapiens) (UniProt Q9NYK1); experiment: Agonist activity at human TLR7 expressed in HEK293 cells after 6 hrs by NFkappaB-luciferase reporter gene assay; format: cell-based
T1 sequence (whole entry): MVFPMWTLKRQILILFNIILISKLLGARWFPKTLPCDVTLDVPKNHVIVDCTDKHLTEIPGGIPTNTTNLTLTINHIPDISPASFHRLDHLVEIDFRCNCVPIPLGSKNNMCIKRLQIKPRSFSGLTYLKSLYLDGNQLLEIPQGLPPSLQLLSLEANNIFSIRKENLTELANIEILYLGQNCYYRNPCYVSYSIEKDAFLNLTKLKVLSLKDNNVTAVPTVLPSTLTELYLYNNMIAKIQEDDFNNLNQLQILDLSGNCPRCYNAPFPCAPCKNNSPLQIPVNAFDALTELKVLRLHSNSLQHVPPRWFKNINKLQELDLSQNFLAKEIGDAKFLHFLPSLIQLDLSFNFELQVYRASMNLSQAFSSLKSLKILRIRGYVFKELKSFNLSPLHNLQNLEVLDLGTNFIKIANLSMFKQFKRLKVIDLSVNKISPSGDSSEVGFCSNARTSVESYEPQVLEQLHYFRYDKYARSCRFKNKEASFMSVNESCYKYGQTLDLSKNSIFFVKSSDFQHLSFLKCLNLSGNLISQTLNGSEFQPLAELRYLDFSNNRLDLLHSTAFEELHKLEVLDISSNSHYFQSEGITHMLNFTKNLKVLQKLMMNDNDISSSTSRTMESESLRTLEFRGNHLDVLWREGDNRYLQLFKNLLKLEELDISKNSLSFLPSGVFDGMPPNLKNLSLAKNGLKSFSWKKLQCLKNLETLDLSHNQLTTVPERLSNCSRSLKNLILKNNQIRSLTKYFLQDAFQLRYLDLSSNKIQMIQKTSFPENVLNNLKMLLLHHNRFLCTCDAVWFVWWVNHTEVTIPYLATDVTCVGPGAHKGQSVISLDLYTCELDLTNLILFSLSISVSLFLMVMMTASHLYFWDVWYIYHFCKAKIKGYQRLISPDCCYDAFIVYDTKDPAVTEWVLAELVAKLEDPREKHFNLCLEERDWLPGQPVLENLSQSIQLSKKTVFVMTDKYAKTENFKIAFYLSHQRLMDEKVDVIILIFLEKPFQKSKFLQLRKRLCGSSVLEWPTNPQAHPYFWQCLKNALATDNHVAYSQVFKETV

[2] = Cytotoxicity against HEK293 cells transfected with the CMV-TLR7 construct assessed as reduction in cell viability after 6 hrs by ATPlite assay; format: cell-based; details: human
[3] = target: T1, Toll-like receptor 7 (Homo sapiens); experiment: Agonist activity at TLR7 in human PBMC assessed as suppression of HCV replicon replication in human HuH7 luc/neo cells harboring RNA encoding bicistronic expression construct comprising wild type HCV type 1b NS3-NS5B regions exposed to conditioned media from compound treated PBMCs after 24 hrs by luciferase reporter gene assay; format: cell-based
[4] = Drug metabolism in mouse liver microsomes at 1 uM after 15 mins; format: ADME, microsome; details: read-out: Drug metabolism
[5] = Drug metabolism in human liver microsomes at 1 uM after 15 mins; format: ADME, microsome; details: read-out: Drug metabolism
[6] = Tmax in C57BL/6 mouse plasma at 5 mg/kg, po; format: ADME, organism-based
[7] = Cmax in C57BL/6 mouse liver at 5 mg/kg, po; format: ADME, organism-based; design: dose 5 mg/kg, route oral
[8] = AUC (0 to last) in C57BL/6 mouse plasma at 5 mg/kg, po; format: ADME, organism-based; design: dose 5 mg/kg, route oral, time 0 - last
Cytochrome P450 3A4 = Cytochrome P450 3A4 (Homo sapiens, UniProt P08684); experiment: Inhibition of CYP3A4 (unknown origin); format: ADME
Cytochrome P450 2C9 = Cytochrome P450 2C9 (Homo sapiens, UniProt P11712); experiment: Inhibition of CYP2C9 (unknown origin); format: ADME
Cytochrome P450 2D6 = Cytochrome P450 2D6 (Homo sapiens, UniProt P10635); experiment: Inhibition of CYP2D6 (unknown origin); format: ADME
Mus musculus [9] = experiment: Induction of innate immune response in C57BL/6 mouse assessed as IFNalpha Cmax in liver at 5 mg/kg, po; format: functional, organism-based; design: dose 5 mg/kg
Mus musculus [10] = experiment: Induction of innate immune response in C57BL/6 mouse assessed as IP-10 Cmax in liver at 5 mg/kg, po; format: functional, organism-based; design: dose 5 mg/kg
Mus musculus [11] = experiment: Induction of innate immune response in C57BL/6 mouse assessed as IP-10 Tmax at 5 mg/kg, po; format: functional, organism-based
Homo sapiens [12] = species on record: Homo sapiens; experiment: Binding affinity to histamine receptor (unknown origin)
[13] = target: Dopamine receptor (Homo sapiens) (UniProt P14416+P35462+P21918+P21917+P21728); experiment: Binding affinity to dopamine receptor (unknown origin); format: protein assay
Homo sapiens [14] = species on record: Homo sapiens; experiment: Binding affinity to serotonin receptor (unknown origin)

Sequence of Cytochrome P450 3A4 (P08684 whole entry): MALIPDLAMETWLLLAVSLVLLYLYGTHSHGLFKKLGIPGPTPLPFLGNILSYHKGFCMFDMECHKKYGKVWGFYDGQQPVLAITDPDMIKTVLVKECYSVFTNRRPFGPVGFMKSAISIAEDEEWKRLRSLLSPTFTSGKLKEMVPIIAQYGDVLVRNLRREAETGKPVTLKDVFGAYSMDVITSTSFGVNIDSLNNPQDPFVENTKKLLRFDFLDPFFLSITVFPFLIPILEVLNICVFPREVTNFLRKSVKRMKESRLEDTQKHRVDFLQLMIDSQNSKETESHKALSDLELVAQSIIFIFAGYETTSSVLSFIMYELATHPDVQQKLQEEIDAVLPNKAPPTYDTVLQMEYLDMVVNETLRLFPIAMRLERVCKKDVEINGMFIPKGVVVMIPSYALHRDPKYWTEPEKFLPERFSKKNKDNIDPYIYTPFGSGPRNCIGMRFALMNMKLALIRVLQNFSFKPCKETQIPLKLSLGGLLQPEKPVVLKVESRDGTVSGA
Sequence of Cytochrome P450 2D6 (P10635 whole entry): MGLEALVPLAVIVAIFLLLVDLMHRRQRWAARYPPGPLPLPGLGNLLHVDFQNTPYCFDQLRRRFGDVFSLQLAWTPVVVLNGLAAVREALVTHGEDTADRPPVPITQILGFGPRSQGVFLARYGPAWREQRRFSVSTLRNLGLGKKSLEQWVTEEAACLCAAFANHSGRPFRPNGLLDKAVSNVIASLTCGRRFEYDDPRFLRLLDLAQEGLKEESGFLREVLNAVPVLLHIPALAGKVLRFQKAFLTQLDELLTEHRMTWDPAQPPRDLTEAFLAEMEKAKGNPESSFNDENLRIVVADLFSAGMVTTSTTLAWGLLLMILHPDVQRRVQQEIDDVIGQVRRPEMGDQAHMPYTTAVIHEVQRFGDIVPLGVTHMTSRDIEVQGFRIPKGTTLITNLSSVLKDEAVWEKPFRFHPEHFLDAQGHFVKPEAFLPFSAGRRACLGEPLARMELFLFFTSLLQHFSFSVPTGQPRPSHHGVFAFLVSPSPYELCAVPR
Sequence of Cytochrome P450 2C9 (P11712 whole entry): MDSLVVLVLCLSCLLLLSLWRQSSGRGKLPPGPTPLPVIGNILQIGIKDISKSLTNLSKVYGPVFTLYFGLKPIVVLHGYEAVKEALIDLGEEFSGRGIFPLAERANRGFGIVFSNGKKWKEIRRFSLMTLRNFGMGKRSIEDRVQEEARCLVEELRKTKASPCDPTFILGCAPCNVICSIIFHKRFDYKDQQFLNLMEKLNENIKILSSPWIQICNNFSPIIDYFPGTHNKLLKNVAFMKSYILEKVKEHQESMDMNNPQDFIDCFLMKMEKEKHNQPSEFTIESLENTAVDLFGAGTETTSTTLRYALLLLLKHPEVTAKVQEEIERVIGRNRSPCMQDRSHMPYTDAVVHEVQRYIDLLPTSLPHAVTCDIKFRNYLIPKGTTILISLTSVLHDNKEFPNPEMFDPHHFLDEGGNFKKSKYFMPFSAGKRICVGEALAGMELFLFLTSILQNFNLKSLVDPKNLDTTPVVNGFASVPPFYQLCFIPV

CCC[C@@H](CCO)Nc1nc(N)nc2c1CN(C(=O)c1csc(C)n1)CC2
MEC [1]: 1.5 µM
CC50 at 6 h [2]: > 24 µM
MEC [3]: 0.2 µM
metabolised at 0.25 h, 1 µM [4]: 33%
metabolised at 0.25 h, 1 µM [5]: 21%
Tmax [6]: 0.5 h
Cmax [7]: 711 ng/g
AUC(0-t) [8]: 70 ng·h/mL
IC50 (Cytochrome P450 3A4): > 10 µM
IC50 (Cytochrome P450 2C9): > 10 µM
IC50 (Cytochrome P450 2D6): > 10 µM
Cmax (Mus musculus [9]): 0 pg/g
Cmax (Mus musculus [10]): 75 pg/g
Tmax (Mus musculus [11]): 4 h
Activity (Homo sapiens [12]): > 10 µM
Activity [13]: > 10 µM
Activity (Homo sapiens [14]): > 10 µM
